{"source": "patent US6040149A", "about": "“Assay for identifying agents which act on the ceramide-activated protein kinase, kinase suppressor of ras, and methods of using said agents” (priority 1997, dated 2000)", "key": {"KSR [1]": {"biological_target": "T1, KSR (Mus musculus, UniProt Q61097)", "T1 sequence (Q61097 1-873)": "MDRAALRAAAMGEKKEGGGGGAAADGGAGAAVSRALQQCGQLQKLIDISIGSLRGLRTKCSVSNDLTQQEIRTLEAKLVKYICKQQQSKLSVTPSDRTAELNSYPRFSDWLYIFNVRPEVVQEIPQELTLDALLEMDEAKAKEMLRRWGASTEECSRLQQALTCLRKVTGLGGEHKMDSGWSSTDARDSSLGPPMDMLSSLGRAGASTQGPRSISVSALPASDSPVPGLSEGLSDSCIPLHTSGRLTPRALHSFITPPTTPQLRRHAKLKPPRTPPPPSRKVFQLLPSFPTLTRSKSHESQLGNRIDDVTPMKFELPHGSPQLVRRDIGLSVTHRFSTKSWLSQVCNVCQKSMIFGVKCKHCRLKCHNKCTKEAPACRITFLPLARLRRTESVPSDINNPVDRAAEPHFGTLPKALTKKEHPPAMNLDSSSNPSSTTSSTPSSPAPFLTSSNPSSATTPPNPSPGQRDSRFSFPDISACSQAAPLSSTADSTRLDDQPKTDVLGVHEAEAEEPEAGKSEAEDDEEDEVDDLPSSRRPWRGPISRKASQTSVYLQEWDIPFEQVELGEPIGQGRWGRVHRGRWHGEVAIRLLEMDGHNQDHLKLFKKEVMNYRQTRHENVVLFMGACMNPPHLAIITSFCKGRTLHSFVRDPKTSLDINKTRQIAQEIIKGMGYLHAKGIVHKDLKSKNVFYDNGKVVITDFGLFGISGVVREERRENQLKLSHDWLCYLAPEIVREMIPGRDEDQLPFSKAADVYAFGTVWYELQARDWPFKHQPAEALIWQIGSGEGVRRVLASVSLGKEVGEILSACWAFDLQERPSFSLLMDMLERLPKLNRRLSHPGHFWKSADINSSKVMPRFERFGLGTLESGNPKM", "test": "Phosphorylation and activation of recombinant Raf-1 by KSR immunoprecipitated from treated COS-7 cells", "assay_type": "cell-based, mouse (KSR expressed in COS-7 cells)", "settings": "C2-ceramide 1 μM; TNFα 10 nM", "description": "FIGS. 23B-23C--COS-7 cells expressing Flag-tagged KSR were stimulated with 1 μM C2-ceramide for 10 min and lysed with NP-40 buffer as in FIG. 23A. […] The autoradiogram was exposed for 1 hour. Data represent one of three experiments.\n(§1) COS-7 cells expressing Flag-tagged KSR were stimulated with 10 nM TNFα for the times indicated and lysed with NP-40 buffer as in FIG. 2A. […] The autoradiogram was exposed for 1 hour. Data represent one of three similar experiments.\nImmunoprecipitated KSR was incubated with reaction buffer A containing 0.5 mM ATP and a protein kinase inhibitor cocktail [20 μM PKC inhibitor peptide (UBI), 2 μM protein kinase A inhibitor peptide (UBI) and 20 μM R24571 (Sigma)] for 30 min at 22° C."}, "KSR [2]": {"biological_target": "T1, KSR", "test": "KSR autophosphorylation after treatment of COS-7 cells expressing KSR", "assay_type": "cell-based, mouse (KSR expressed in COS-7 cells)", "description": "FIG. 23A--COS-7 cells were transfected as in FIG. 22A and placed in serum-free medium. After 4 hours, cells were stimulated for 10 min with the ceramide analog, C2-ceramide (Biomol), at the concentrations indicated. Cells were lysed with NP-40 lysis buffer, and Flag-tagged KSR (0.8 mg protein for each point) was immunoprecipitated and assayed for autophosphorylation activity as described in Experimental Procedures. The autoradiogram was exposed for 1 hour. KSR is expressed at similar levels in each sample as monitored by Western blot (data not shown). Data represent one of three similar experiments.\nas §1\nKSR was immunoprecipitated as above from 0.8 mg NP-40 lysate protein with 40 μl agarose-conjugated anti-Flag antibody at 4° C. for 4 hrs or overnight. […] The reaction was stopped by addition of Laemmli sample buffer. Samples were resolved by 7.5% sodium dodecyl sulfate-polyacrylamide gel electrophoresis (SDS-PAGE) and autoradiographed."}, "KSR/Raf-1 complex": {"tested_on": "KSR/Raf-1 complex", "test": "Co-immunoprecipitation of KSR and Raf-1 from treated COS-7 cells", "assay_type": "cell-based, mouse KSR (COS-7 cells)", "description": "FIG. […] Cells were lysed with NP-40 buffer and subjected to 4 hr of immunoprecipitation with anti-Raf-1 antibody. Two controls, KSR and KSR with ceramide treatment, received protein A conjugated sepharose beads without anti-Raf-1 antibody. […] Data represent one of four similar experiments.\nCell lysates were subjected to immunoprecipitation with anti-Flag antibody. Immunoprecipitated samples were handled as in FIG. 24A except Western blot analysis was performed with anti-Raf-1 antibody. Data represent one of three similar experiments.\nAnti-Raf-1 antibody conjugated beads were prepared by overnight incubation of 2 μl of anti-Raf-1 antibody (a kind gift of Dr. Debbie Morrison) with 5 mg of the protein A conjugated sepharose beads, followed by washing three times with NP-40 lysis buffer. […] Lysates (0.8 mg total protein) were then incubated for 4 hrs with anti-Raf-1 bound sepharose beads or anti-Flag conjugated agarose beads. The beads were washed vigorously 5 times, boiled in Laemmli sample buffer, and proteins were separated on 7.5% SDS-PAGE. After electrophoresis, the gel was transferred to PVDF membrane and probed with anti-Flag antibody or anti-Raf-1 antibody."}, "KSR [3]": {"biological_target": "T1, KSR", "test": "KSR activity toward Raf-1 peptides in vitro", "assay_type": "biochemical, mouse (KSR immunoprecipitated from COS-7 cells)", "design": "Raf-1 peptides as substrate", "description": "The wild type peptide contains eight potential phosphorylation sites (shown in bold). Substitution of alanines and glycines for serines and threonines generated one peptide (TTLP-peptide) containing only two potential phosphorylation sites (Thr^268,269) and another peptide (AALP-peptide) with no potential phosphorylation sites.\nFIG. 28A--Flag-tagged KSR was immunoprecipitated from 0.2 mg COS-7 lysate, and assayed with TTLP- or AALP-peptides in the presence of 30 nM ceramide (Avanti) or diluent (DMSO). Background counts per minute (cpm) derived from samples incubated with the AALP-peptide which contains no phosphorylation sites were subtracted from all points. Background cpm always represented less than 25% of the untreated total.\nFIG. 28B--Flag-tagged KSR immunoprecipitated from 0.2 mg COS-7 lysate was assayed with TTLP- or AALP-peptides in the presence of ceramide or diluent for 45 min as described in FIG. 7A.\nFIG. 28C--Flag-tagged KSR was immunoprecipitated from 0.15 mg COS-7 lysate and assayed with TTLP- or AALP-peptides for 20 min in the presence of 30 nM of the indicated lipid second messengers as described in FIG. 28A (AA: arachidonic acid; LPA: lyso phosphatidic acid; PMA: phorbol 12-myristate 13-acetate; DAG: 1,2-diacylglycerol).\nKSR-bound beads were incubated with reaction buffer B plus 10 mM MnCl2, 5 μM ATP and [γ-^32 P]ATP at 22° C. for the period of time indicated in the presence of 0.3 mM synthetic Raf-peptide or substrate peptides specific for other Ser/Thr protein kinases. […] (SEQ ID NO.3). Substitution of glycines and alanines for serines and threonines generated one peptide (termed TTLP-peptide) containing only two potential phosphorylation sites at Thr^268,269 (in bold), […] (SEQ ID NO. 24), and another peptide (termed AALP-peptide; SEQ ID No.6) with no potential phosphorylation sites, […] (SEQ ID No.25). The amino acid sequences of substrate peptides specific for other protein kinases (Joseph et al., 1993) are: […] (SEQ ID NO.26) (PKA); […] (SEQ ID NO.27) (S6 kinase); […] (SEQ ID NO.28)(CK II); […] (SEQ ID NO.29) (CaM kinase II); and […] (SEQ ID NO.30) (PKC). […] Substrate peptides for PKA and PKC were from Sigma (St. Louis, Mo.). The reaction was stopped by addition of a stop solution containing 0.5 M ATP in 90% formic acid. The beads were removed by centrifugation at 5000×g for 2 min and the supernatant was loaded on P81 Whatman filter paper. The filter was air dried and washed in 4 mM Na2 H2 P2 O7, 1 mM acetic acid for one hour. The filter was baked at 90° C. for 10 min and quantified by Cerenkov counting using a Beckman LS 5000TD scintillation counter. In some experiments, samples were separated by C18 reverse-phase chromatography on HPLC (Mathias et al., 1991) to verify the results of the filter assay. Virtually identical results were obtained with both methods."}, "CAP kinase": {"tested_on": "CAP kinase", "test": "Phosphorylation of Raf-1 peptides by CAP kinase", "assay_type": "biochemical, bovine (brain)"}}}
{"compound": "CCCCCCCCCCCCC/C=C/[C@@H](O)[C@H](CO)NC(C)=O", "note": "[C2-ceramide]", "values": [{"measurement": "activity of immunoprecipitated KSR to phosphorylate and activate Raf-1", "setting": "KSR [1]", "result": "markedly enhanced"}, {"measurement": "concentration of maximal effect", "setting": "KSR [2]; C2-ceramide", "result": 40, "unit": "µM"}, {"measurement": "lowest effective concentration (KSR activity)", "setting": "KSR [2]; C2-ceramide", "result": 50, "unit": "nM"}, {"measurement": "fold induction at 40 µM", "setting": "KSR [2]; COS-7, 10 min, 40 μM C2-ceramide, read-out: maximal enhancement of KSR autophosphorylating activity", "result": "5 to 10"}, {"measurement": "co-immunoprecipitation of KSR with Raf-1", "setting": "KSR/Raf-1 complex; 50 μM C2-ceramide, anti-Raf-1 precipitation", "result": "significantly enhanced"}, {"measurement": "co-immunoprecipitation of Raf-1 with KSR", "setting": "KSR/Raf-1 complex; C2-ceramide, anti-Flag precipitation", "result": "dramatically enhanced"}]}
{"compound": "RQRSTSTPNVHMVSTTLPVDSRMIE [wild type Raf-peptide]", "values": [{"measurement": "phosphorylation of peptide by KSR", "setting": "KSR [3]", "result": "phosphorylated to the same extent"}, {"measurement": "phosphorylation of Raf-1 peptide by CAP kinase", "setting": "CAP kinase", "result": "phosphorylated"}]}
